Assay results taken from patent US11357769B2, “Drug combinations for reducing cell viability and/or cell proliferation” (Eisai R&D Management Co., Ltd., priority 2016, dated 2022).

Tested on: Hep3B xenograft
Experiment: Antitumor activity in Hep3B xenograft model of hepatocellular carcinoma
Type: in vivo, mice
Settings: 17 days
Method: The human hepatocellular cancer cell line Hep3B was cultured in RPMI1640 medium containing 10% fetal bovine serum at 37° C. in a 5% CO2 atmosphere and kept in exponential growth phase. […] When the mean tumor volume (TV) reached approximately 170 mm^3 (10 days after implantation), 56 mice were selected based on their TVs, and were sorted into 7 treatment groups with 8 animals per group. […] Body weights were measured daily and tumor measurements were performed twice weekly.
[formula] where Day X is any day of measurement.
The anti-tumor effects of the treatment, Partial (PR) and complete regression (CR), stable (SD) and progressive (PD) disease were defined by the H3 Xenograft Model Response Criteria (Appendix 4). […] The relative body weight changes were analyzed by two way ANOVA followed by Dunnett's post hoc.

With C=CC(=O)Nc1cc(N2CCN(CC)CC2)ccc1Nc1cc(N(C)C(=O)Nc2c(Cl)c(OC)cc(OC)c2Cl)ncn1 [Compound 1, N-(2-((6-(3-(2,6-dichloro-3,5-dimethoxyphenyl)-1-methylureido)pyrimidin-4-yl)amino)-5-(4-ethylpiperazin-1-yl)phenyl)acrylamide] as the compound, how does the “Tumor Growth Inhibition (TGI)” value (Compound 1 single agent 100 mg/kg PO) read?
The value was 16%.

What about the “Tumor Growth Inhibition (TGI)” value (Compound 1 single agent 300 mg/kg PO, p<0.05 vs vehicle) of the same compound?
The value was 64%.
